Where a name gives a salt, the structure may show the parent alone.
How the values were obtained:
α2B receptor = target: T1, α2B receptor (Homo sapiens, UniProt P18089); test: Competition binding, [3H]rauwolscine, human α2B receptor; conditions: for Ki: pKi alpha-2 2b
T1 construct: host or cells: LM(tk-) cells, line L-NGC-α2B
T1 sequence (P18089 1-450): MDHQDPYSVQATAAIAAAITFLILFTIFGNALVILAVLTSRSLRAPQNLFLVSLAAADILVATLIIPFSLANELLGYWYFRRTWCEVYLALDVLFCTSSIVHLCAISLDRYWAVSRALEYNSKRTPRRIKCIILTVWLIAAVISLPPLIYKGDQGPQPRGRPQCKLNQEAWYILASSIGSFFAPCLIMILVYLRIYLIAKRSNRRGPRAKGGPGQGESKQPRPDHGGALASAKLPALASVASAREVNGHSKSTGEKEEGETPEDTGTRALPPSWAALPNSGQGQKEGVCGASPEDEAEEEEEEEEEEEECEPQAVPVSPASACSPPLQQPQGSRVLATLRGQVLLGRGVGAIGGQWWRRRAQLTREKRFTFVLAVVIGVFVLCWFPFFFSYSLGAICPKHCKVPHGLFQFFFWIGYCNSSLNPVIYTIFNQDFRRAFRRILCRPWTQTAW
Method in brief: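 Cell lysates from stably transfected LM(tk−) lines are resuspended in 25 mM glycylglycine (pH 7.6 at room temperature), incubated to equilibrium with 0.5 nM [3H]rauwolscine plus competitor, then filtered through GF/B filters; 10 μM phentolamine defines nonspecific binding.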

human prostatic tissue = test: In vitro human prostate model: block of phenylephrine-induced contraction of human prostatic tissue; format: cell-based; conditions: block of phenylephrine-induced contraction of human prostate
Text: The protocol for these experiments is given below.
Functional Properties of α1 Antagonists in the Human Prostate
The efficacy of α1 adrenergic antagonists for the treatment of benign prostatic hyperplasia (BPH) is related to their ability to elicit relaxation of prostate smooth muscle. An index of this efficacy can be obtained by determining the potency of al antagonists to antagonize the contraction of human prostatic tissue induced by an α1 agonist “in vitro”. Furthermore, by comparing the potency of subtype selective α1 antagonists in binding assays using human α1 receptors with their potency to inhibit agonist-induced smooth muscle contraction, it is possible to determine which of the α1 adrenergic receptor subtypes is involved in the contraction of prostate smooth muscle.
Prostatic adenomas were obtained at the time of surgery from patients with symptomatic BPH. […] The baths were maintained at 37° C. and continuously oxygenated with 5% CO2 and 95% O2. Isometric tension was measured with a Grass Instrument FT03 force transducer interfaced with a computer. Tissue strips were contracted with varying concentrations of phenylephrine after incubating for 20 minutes in the absence and presence of at least three different concentrations of antagonist. Dose-response curves for phenylephrine were constructed, and the antagonist potency (pA2) was estimated by the dose-ratio method. The concentration of some antagonists in the tissue bath was assessed by measuring the displacement of [3H]prazosin by aliquots of the bath medium, using membrane preparations of the cloned human α1C receptor. This control was necessary to account for losses of antagonist due to adsorption to the tissue bath and/or metabolism during the time the antagonists were equilibrated with the prostate tissue.

canine prostate = test: In vivo dog prostate model: inhibition of phenylephrine-induced increase in urethral pressure in anesthetized dogs; conditions: inhibition of phenylephrine-induced increases in urethral pressure, anesthetized dogs
Method: Protocol for In Vivo Evaluation of Compounds in Canine Prostate
Adult male mongrel dogs more than one year of age were chosen for the model. After induction of general anesthesia using sodium pentobarbital (25 mg/Kg i.v.), the animals were intubated and allowed to breathe spontaneously. An arterial catheter was inserted via the femoral artery to monitor blood pressure and i.v. line was inserted into the leg for fluid and drug administration. A constant saline infusion was maintained at 40 to 50 mL/h. Next, a seven cm lower abdominal incision was made one cm lateral to the penis.
The bladder, prostate and a short segment of urethra were identified and isolated, without damage to the nerves or blood vessels. A cystotomy incision was made through which the pressure catheter was inserted and positioned in the prostatic urethra. The cystotomy was not closed, but the wound edges were sutured to stop bleeding. The tip of the catheter was positioned just distal to the prostate and secured in place with an O-silk tie around the urethra. A second holding suture at the bladder neck secured the catheter in place.
Fluid, either water or saline, was pumped by a Harvard infusion pump at 0.1 mL/min through a Gould pressure transducer into the catheter. The fluid exists at a port in the catheter which is in the prostatic urethra. Occlusion of the port, by contraction of the prostate, blocks the flow and a pressure wave is created. This pressure is transmitted back through the catheter to the transducer which is attached to a Gould recorder. Squeezing the prostate gland caused an increase in urethral pressure which verified the correct position in the urethra.
The compounds were tested as follows: A dose response curve was first generated for phenylephrine alone, in doses ranging from one μg/Kg to 50 μg/Kg. The absolute rise in urethral pressure was recorded for each dose and the next dose given when the urethral pressure returned to baseline. Phenylephrine dose response curves were generated in all animals tested. Increasing doses of compounds were then given, and the phenylephrine dose response curve repeated in the prepense of each dose of the compound. No animal received more than one compound; four animals were used to test each compound. To test for tachyphylaxis, four separate dogs were challenged with repeated phenylephrine doses for six hrs, the usual length of each experiment. From the dose-effect data, the inhibition constant (Ki) and the median-effect dose (ED50) were calculated. Both the Ki and ED50 values given are calculated by using microcomputer software and an IBM-PC.

[1] = [3H]rauwolscine, human α2B receptor, LM(tk−) cells
[2] = [3H]rauwolscine, LM(tk-) cell line L-NGC-α2B, SEM and n in lines below

SMILES	Ki (α2B receptor; [1])	pA2 (human prostatic tissue)	melting point	other results
CCC1=C(C(N)=O)C(c2ccc([N+](=O)[O-])cc2)C(C(=O)NCCCN2CCC(C#N)(c3ccccc3)CC2)=C(CC)N1 (single isomer, unassigned; (+)) [(+)-102]	1910 nM	10.43 ± 0.14	–	–
CCC1=C(C(N)=O)C(c2ccc([N+](=O)[O-])cc2)C(C(=O)NCCCN2CCC(c3ccccc3)(c3ccccc3)CC2)=C(CC)N1 (centres unmarked) [Example 42, 5-carboxamido-2,6-diethyl-1,4-dihydro-4-(4-nitrophenyl)-3-{N-[3-(4,4-diphenylpiperidin-1-yl)propyl]}carboxamidopyridine]	–	8.92 ± 0.08	119 to 123 °C	Ki (α2B receptor; [2]): 229 nM; Urethral Pressure K i (canine prostate): 9 ± 2.5 nmol/kg
CCC1=C(C(=O)NCCCN2CCC(c3ccccc3)(c3ccccc3)CC2)C(c2ccc([N+](=O)[O-])cc2)C(C(=O)OC)=C(C)N1 (centres unmarked) [Example 73, 2-Ethyl-1,4-dihydro-5-methoxycarbonyl-6-methyl-4-(4-nitro) phenyl-3-(N-(3-(4,4-diphenylpiperidin-1-yl)propyl))carboxamidopyridine]	–	8.56 ± 0.07	–	Ki (α2B receptor): 676 nM
CCC1=C(C(=O)NCCCN2CCC(c3ccccc3)(c3ccccc3)CC2)C(c2ccc([N+](=O)[O-])cc2)C(C(N)=O)=C(C)N1 (centres unmarked) [Example 81, 5-carboxamido-2-ethyl-1,4-dihydro-6-methyl-4-(4-nitro)phenyl-3-(N-(3-(4,4-diphenylpiperidin-1-yl)propyl))carboxamidopyridine hydrochloride]	–	8.60 ± 0.03	–	Ki (α2B receptor; [2]): 162 nM
CCC1=C(C(=O)NCCCN2CCC(c3ccccc3)(c3ccccc3)CC2)C(c2cccc(OC)c2)C(C(N)=O)=C(C)N1 (centres unmarked) [Example 113, 5-Carboxamide-2-ethyl-1,4-dihydro-4-(3-methoxyphenyl)-6-methyl-3-(N-(3-(4,4-diphenylpiperidin-1-yl)propyl)carboxamido)-pyridine]	166 nM	–	120 to 123 °C	–
CC1=C(C(N)=O)C(c2ccc(S(C)(=O)=O)cc2)C(C(=O)NCCCN2CCC(c3ccccc3)(c3ccccc3)CC2)=C(C)N1 (centres unmarked) [Example 115, 5-Carboxamido-1,4-4-dihydro-4-(4-methanesufonylphenyl)-2,6-dimethyl-3-(N-(3-(4,4-diphenylpiperidin-1-yl)propyl)carboxamido)-pyridine]	776 nM	–	206 to 209 °C	–
COc1cccc(C2C(C(N)=O)=C(C)NC(C)=C2C(=O)NCCCN2CCC(c3ccccc3)(c3ccccc3)CC2)c1 (centres unmarked) [Example 117, 5-Carboxamido-1,4-dihydro-4-(3-Methoxyphenyl)-2,6-dimethyl-3-(N-(3-(4,4-diphenylpiperidin-1-yl)propyl)carboxamido)-pyridine]	437 nM	–	212 to 213 °C	–
CCC1=C(C(N)=O)C(c2ccc(S(C)(=O)=O)cc2)C(C(=O)NCCCN2CCC(c3ccccc3)(c3ccccc3)CC2)=C(C)N1 (centres unmarked) [Example 118, 3-Carboxamido-2-ethyl-1,4-dihydro-4-(4-methanesulfonylphenyl)-6-methyl-3-(N-(3-(4,4-diphenylpiperidin-1-yl)propyl)carboxyamido)-pyridine]	1450 nM	–	182 to 183 °C	–
CC(C)C1=C(C(N)=O)C(c2ccc([N+](=O)[O-])cc2)C(C(=O)NCCCN2CCC(c3ccccc3)(c3ccccc3)CC2)=C(C(C)C)N1 (centres unmarked) [Example 127]	–	–	76 to 80 °C	pKi alpha-2 2b (α2B receptor; [1]): 6.42
CCC1=C(C(=O)NC)C(c2ccc([N+](=O)[O-])cc2)C(C(=O)NCCCN2CCC(c3ccccc3)(c3ccccc3)CC2)=C(CC)N1 (centres unmarked) [Example 128, 2,6-Diethyl-1,4-dihydro-5-(N-methyl)carboxamido-4-(4-nitrophenyl)-3-{N-[3-(4,4-diphenylpiperidin-1-yl)propyl]}carboxamidopyridine]	437 nM	8.21 ± 0.06	123 to 126 °C	–
CCC1=C(C(=O)NCCCN2CCC(c3ccccc3)(c3ccccc3)CC2)C(c2ccc([N+](=O)[O-])cc2)C(C(=O)OC(C)(C)C)=C(COCCN=[N+]=[N-])N1 (centres unmarked) [Example 139]	1260 nM	–	62 to 67 °C	–
CCC1=C(C(=O)OCCC#N)C(c2ccc([N+](=O)[O-])cc2)C(C(=O)NCCCN2CCC(c3ccccc3)(c3ccccc3)CC2)=C(COCCN=[N+]=[N-])N1 (centres unmarked) [Example 141]	437 nM	–	63 to 67 °C	–
CCNC(=O)C1=C(COCCN=[N+]=[N-])NC(CC)=C(C(=O)NCCCN2CCC(c3ccccc3)(c3ccccc3)CC2)C1c1ccc([N+](=O)[O-])cc1 (centres unmarked) [Example 147, 2-((2-Azidoethyl)oxy)methyl-6-ethyl-3-(N-ethyl)carboxamido-1,4-dihydro-4-(4-nitro)phenyl-5-(N-(3-(4,4-diphenylpiperidin-1-yl-)propyl))carboxamidopyridine]	1100 nM	–	83 to 87 °C	–
CCC1=C(C(=O)NCCCN2CCC(c3ccccc3)(c3ccccc3)CC2)C(c2ccc([N+](=O)[O-])cc2)C(C(N)=O)=C(COCCN=[N+]=[N-])N1 (centres unmarked) [Example 149, 2-((2-Azidoethyl)oxy)methyl-3-carboxamido-6-ethyl-1,4-dihydro-4-(4-nitro) phenyl-5-(N-(3-(4,4-diphenylpiperidin-1-yl)propyl))carboxamidopyridine]	562 nM	–	87 to 91 °C	–
CC1=C(C(=O)NCCCN2CCC(c3ccccc3)(c3ccccc3)CC2)C(c2ccc([N+](=O)[O-])cc2)C(C(=O)NC(C)C)=C(C)N1 (centres unmarked) [Example 156, 1,4-Dihydro-3-(N-isopropyl) carboxamido-2,6-dimethyl-4-(4-nitrophenyl)-5-{N-[3-(^414-diphenylpiperidin-1-yl)propyl]}carboxamidopyridine]	562 nM	–	123 to 125 °C	–
CNC(=O)C1=C(C)NC(C)=C(C(=O)NCCCN2CCC(O)(c3ccccc3)CC2)C1c1ccc([N+](=O)[O-])cc1 (centres unmarked) [Example 162, 1,4-Dihydro-3-{N-[3-(4-hydroxy-4-phenylpiperidin-1-yl)propyl]}carboxamido-2,6-dimethyl-5-(N-methyl)carboxamido-4-(4-nitrophenyl)pyridine]	347 nM	–	87 to 91 °C	–

Source: patent publication US6608086B2, “Dihydropyridines and new uses thereof” (Synaptic Pharmaceutical Corporation, priority 1993, dated 2003)
